Test results published in patent US12065443B2, “Compounds and pharmaceutical compositions thereof for the treatment of diseases” (priority 2017, dated 2024).
Like-named read-outs stand apart in the source and are kept apart here.

What was measured:
SIK3 [1] = biological target: T1, SIK3 (Homo sapiens, UniProt Q9Y2K2); test: biochemical; conditions: ADP-Glo SIK kinase assay
T1 construct: purchased SignalChem S12-11G-100
Description: (§1) The ADP-Glo™ kinase assay is a luminescent technology assay which measures the ADP formed from a kinase reaction. […] In a second step the kinase reactions are terminated and all the remaining ATP is depleted. In a final step the ADP is converted into ATP and this newly synthesized ATP is measured by using a luciferase/luciferin reaction. The generated light is measured using an Envision plate reader, wherein the luminescent signal obtained positively correlates with the kinase activity.
(§2) 1% DMSO and 10 μM staurosporine final concentrations are used as negative and positive controls.
(§3) 2 μL enzyme-substrate mixture is added to the assay plates.
(§4) The reaction is started by adding 2 μL diluted ATP on the assay plates. Plates are centrifuged for a few seconds at 1000 rpm and gently shaken for 2 min followed by an incubation at RT for 120 min.
(§5) The reactions are stopped and the unconsumed ATP is depleted by adding 5 μL ADP-Glo Reagent (Promega, Cat #V912B) to the reaction. The plates are centrifuged for a few seconds at 1000 rpm and incubated at RT for 40 min (ATP depletion).
(§6) The ADP is converted to ATP and luciferase and luciferin is introduced to detect ATP by adding 10 μL Kinase Detection Reagent (Promega, Cat #V913B+V914B) to the reaction. The plates are centrifuged for a few seconds at 1000 rpm and incubated at RT for 30 min (ADP detection).
(§7) Luminescence is measured on an Envision plate reader (PerkinElmer Inc.).

SIK2 [2] = biological target: T2, SIK2 (Homo sapiens, UniProt Q9H0K1); test: biochemical; conditions: ADP-Glo SIK kinase assay
T2 construct: purchased ThermoFisher Scientific PV4792
Description: as §1, §2, §3, §4, §5, §6, §7

SIK1 [3] = biological target: T3, SIK1 (Homo sapiens, UniProt P57059); test: biochemical; conditions: ADP-Glo SIK kinase assay
T3 construct: purchased Carna Biosciences 02-131
Description: as §1, §2, §3, §4, §5, §6, §7

[4] = test system: LPS-induced TNFα secretion in monocyte-derived macrophages (MdM); test: MdM assay: LPS-triggered TNFα (ELISA); type: cell-based, human; conditions: Homo sapiens, Macrophage, LPS-triggered TNFα inhibition
Method in brief: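 TNFα ELISA read on supernatants harvested 20 h after LPS (final 200 ng/mL) stimulation. Cells were day-10 macrophages derived from human blood CD14+ monocytes, exposed to 3-fold compound dilutions for 1 h at 37 °C beforehand, with DMSO held at 0.2%.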

SIK3 [5] = biological target: T1, SIK3; test: biochemical
Method in brief: (§8)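 AMARA peptide phosphorylation by SIK1–3 is quantified through ^33P uptake from a labeled/unlabeled ATP blend. Staurosporine at 10 μM final defines full inhibition, 1% DMSO the uninhibited signal. Quench uses phosphoric acid; counting follows filter capture.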

SIK2 [6] = biological target: T2, SIK2; test: biochemical; conditions: 33P radioactive SIK kinase assay, AMARA peptide, 10 μM ATP
Method in brief: as §8

SIK1 [7] = biological target: T3, SIK1; test: biochemical; conditions: 33P radioactive SIK kinase assay, AMARA peptide, 10 μM ATP; read-out: SIK1 IC50
Method in brief: as §8

T1 sequence (Q9Y2K2 whole entry): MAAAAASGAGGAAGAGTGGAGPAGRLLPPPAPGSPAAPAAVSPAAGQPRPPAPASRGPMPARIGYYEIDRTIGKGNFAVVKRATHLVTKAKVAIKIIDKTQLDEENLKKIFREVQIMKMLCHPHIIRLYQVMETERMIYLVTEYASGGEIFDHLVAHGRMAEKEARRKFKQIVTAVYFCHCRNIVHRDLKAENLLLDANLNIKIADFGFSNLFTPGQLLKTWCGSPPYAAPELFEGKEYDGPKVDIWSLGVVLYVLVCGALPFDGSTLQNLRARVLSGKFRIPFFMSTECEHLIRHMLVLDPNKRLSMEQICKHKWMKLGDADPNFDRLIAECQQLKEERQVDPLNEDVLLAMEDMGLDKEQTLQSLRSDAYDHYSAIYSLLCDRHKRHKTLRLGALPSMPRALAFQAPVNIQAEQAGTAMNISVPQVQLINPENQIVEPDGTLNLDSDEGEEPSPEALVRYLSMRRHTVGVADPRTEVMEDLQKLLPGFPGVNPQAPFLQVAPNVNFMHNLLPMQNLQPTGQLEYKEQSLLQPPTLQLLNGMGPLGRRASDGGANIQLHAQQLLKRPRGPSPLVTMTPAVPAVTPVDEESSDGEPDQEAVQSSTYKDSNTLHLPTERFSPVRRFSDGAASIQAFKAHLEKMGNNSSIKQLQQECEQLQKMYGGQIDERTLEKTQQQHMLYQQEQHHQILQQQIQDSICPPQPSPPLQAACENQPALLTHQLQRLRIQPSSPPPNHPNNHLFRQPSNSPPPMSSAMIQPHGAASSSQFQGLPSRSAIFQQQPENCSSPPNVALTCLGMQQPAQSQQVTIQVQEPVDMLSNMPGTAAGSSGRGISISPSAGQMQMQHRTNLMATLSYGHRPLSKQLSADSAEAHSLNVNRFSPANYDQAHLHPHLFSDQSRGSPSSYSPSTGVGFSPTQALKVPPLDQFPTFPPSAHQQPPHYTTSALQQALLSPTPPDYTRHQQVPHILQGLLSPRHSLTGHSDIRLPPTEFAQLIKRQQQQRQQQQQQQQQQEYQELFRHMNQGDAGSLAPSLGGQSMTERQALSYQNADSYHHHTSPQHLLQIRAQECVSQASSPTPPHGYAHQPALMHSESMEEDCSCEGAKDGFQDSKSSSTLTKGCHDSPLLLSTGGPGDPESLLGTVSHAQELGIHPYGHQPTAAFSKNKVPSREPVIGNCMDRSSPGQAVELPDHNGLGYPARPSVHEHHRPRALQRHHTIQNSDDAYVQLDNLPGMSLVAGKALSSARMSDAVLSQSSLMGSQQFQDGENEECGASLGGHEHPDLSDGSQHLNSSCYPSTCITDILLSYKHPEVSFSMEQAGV
T3 sequence (P57059 whole entry): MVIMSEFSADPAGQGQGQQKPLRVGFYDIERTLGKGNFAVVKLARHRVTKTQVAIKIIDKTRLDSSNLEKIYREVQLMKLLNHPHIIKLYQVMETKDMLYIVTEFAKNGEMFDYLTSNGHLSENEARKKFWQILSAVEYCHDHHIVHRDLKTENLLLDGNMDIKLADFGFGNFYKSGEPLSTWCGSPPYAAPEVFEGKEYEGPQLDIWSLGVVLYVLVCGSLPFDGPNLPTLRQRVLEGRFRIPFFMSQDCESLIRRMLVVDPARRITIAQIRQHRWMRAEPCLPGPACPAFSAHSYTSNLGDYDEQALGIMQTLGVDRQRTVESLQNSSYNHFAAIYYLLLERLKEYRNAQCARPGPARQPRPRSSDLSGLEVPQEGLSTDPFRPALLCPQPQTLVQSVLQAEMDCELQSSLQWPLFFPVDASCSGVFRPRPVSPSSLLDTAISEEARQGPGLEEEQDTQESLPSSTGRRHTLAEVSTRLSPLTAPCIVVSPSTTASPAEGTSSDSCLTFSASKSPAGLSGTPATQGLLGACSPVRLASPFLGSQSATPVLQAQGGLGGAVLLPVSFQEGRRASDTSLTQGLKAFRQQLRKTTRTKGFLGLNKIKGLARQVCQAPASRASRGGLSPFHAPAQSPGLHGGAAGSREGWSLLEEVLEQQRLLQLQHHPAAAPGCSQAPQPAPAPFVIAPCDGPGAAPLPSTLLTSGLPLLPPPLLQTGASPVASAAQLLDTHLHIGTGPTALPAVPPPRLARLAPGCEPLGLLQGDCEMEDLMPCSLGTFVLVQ
T2 sequence (Q9H0K1 whole entry): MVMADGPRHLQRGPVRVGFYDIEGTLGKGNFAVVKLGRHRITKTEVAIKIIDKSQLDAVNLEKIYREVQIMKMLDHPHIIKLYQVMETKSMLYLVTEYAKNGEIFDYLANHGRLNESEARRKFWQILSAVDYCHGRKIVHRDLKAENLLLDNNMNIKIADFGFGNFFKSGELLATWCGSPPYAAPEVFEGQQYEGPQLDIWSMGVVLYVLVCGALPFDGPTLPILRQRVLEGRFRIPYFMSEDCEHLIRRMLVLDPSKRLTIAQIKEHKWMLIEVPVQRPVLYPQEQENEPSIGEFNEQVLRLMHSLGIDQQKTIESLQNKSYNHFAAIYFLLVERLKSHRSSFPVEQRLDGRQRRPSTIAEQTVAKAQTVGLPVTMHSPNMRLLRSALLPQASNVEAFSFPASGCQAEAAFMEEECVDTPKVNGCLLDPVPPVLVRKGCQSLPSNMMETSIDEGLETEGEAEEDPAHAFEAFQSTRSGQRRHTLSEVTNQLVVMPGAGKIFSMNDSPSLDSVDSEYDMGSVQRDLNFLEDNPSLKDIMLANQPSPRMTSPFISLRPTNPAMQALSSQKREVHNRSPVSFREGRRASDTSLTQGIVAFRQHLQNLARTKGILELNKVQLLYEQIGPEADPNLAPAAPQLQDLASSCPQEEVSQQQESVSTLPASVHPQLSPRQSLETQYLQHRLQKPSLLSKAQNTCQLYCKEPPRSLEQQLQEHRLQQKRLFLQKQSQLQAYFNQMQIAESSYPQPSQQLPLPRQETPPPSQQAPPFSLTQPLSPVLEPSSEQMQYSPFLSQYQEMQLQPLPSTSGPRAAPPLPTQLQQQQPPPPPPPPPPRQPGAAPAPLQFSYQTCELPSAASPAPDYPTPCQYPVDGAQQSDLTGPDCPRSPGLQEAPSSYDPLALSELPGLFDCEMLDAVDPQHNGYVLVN

Structure (SMILES) | IC50 (SIK3 [1]) | IC50 (SIK2 [2]) | IC50 (SIK1 [3]) | EC50 [4] | IC50 (SIK3 [5]) | IC50 (SIK2 [6]) | IC50 (SIK1 [7])
COc1cc(-c2cnc3cc(-c4cnn(C)c4)ccn23)cc2c1C(=O)N(C1CC1)CC2 [compound 262, 2-cyclopropyl-8-methoxy-6-[7-(1-methylpyrazol-4-yl)imidazo[1,2-a]pyridin-3-yl]-3,4-dihydroisoquinolin-1-one] | 0.01 to 10 nM | 0.01 to 10 nM | 0.01 to 10 nM | 0.1 to 100 nM | 0.01 to 10 nM | 0.01 to 10 nM | 10 to 100 nM
COc1cc(-n2cnc3cc(-c4cn[nH]c4)ccc32)cc(OC(F)F)c1C(=O)NC1CC1 [compound 306, N-cyclopropyl-2-(difluoromethoxy)-6-methoxy-4-[5-(1H-pyrazol-4-yl)benzimidazol-1-yl]benzamide] | 0.01 to 10 nM | 0.01 to 10 nM | 0.01 to 10 nM | 0.1 to 100 nM |  |  | 
COc1cc(-c2cnc3cc(-c4cc(C)no4)ccn23)cc(OC(F)F)c1C(=O)NC1CC1 [compound 270, N-cyclopropyl-2-(difluoromethoxy)-6-methoxy-4-[7-(3-methylisoxazol-5-yl)imidazo[1,2-a]pyridin-3-yl]benzamide] | 0.01 to 10 nM | 0.01 to 10 nM | 0.01 to 10 nM | 0.1 to 100 nM |  |  | 
COc1cc(-n2cnc3cc(-c4cnn(C)c4)ccc32)cc(OC)c1C(=O)NC(C)(C)C [compound 76, N-tert-butyl-2,6-dimethoxy-4-[5-(1-methylpyrazol-4-yl)benzimidazol-1-yl]benzamide] | > 500 nM | > 500 nM | > 500 nM | > 5000 nM | > 500 nM | > 500 nM | > 500 nM
CCOC(=O)COc1cn2c(-c3cc(OC)c(C(=O)NC4CC4)c(OC(F)F)c3)cnc2cc1-c1cnn(C)c1 [Cpd 298, ethyl 2-[3-[4-(cyclopropyl-carbamoyl)-3-(difluoromethoxy)-5-methoxy-phenyl]-7-(1-methylpvrazol-4-yl)imidazo[1,2-a]pyridin-6-yl]oxyacetate] | 0.01 to 10 nM | 0.01 to 10 nM | 0.01 to 10 nM | 1000 to 5000 nM |  |  | 
CCN(CC)CCOC(=O)C(C)(C)n1cc(-c2ccn3c(-c4cc(OC)c(C(=O)NCC(F)(F)F)c(OC)c4)cnc3c2)cn1 [Cpd 305, 2-(diethylamino)ethyl 2-[4-[3-[3,5-dimethoxy-4-(2,2,2-trifluoroethyl-carbamoyl)phenyl]imidazo[1,2-a]pyridin-7-yl]pyrazol-1-yl]-2-methyl-propanoate] | 0.01 to 10 nM | 0.01 to 10 nM | 0.01 to 10 nM | 100 to 1000 nM |  |  | 
COc1cc(-c2cnc3cc(-c4cn(C)cn4)ccn23)cc(OC)c1C(=O)N[C@@H](C)C(F)(F)F [compound 216, 2,6-dimethoxy-4-[7-(1-methylimidazol-4-yl)imidazo[1,2-a]pyridin-3-yl]-N-[(1S)-2,2,2-trifluoro-1-methyl-ethyl]benzamide] | 10 to 100 nM | 10 to 100 nM | 100 to 500 nM | 1000 to 5000 nM | 100 to 500 nM | 10 to 100 nM | 100 to 500 nM
COc1ccc(-c2ccn3c(-c4cc(OC)c(C(=O)NC5CC5)c(OC(F)F)c4)cnc3c2)cn1 [compound 267, N-cyclopropyl-2-(difluoromethoxy)-6-methoxy-4-[7-(6-methoxy-3-pyridyl)imidazo[1,2-a]pyridin-3-yl]benzamide] | 0.01 to 10 nM | 0.01 to 10 nM | 0.01 to 10 nM | 0.1 to 100 nM |  |  | 
COc1cc(-c2cnc3cc(-c4cnn(C)c4)ccn23)cc2c1C(=O)N(CC(F)(F)F)C2 [compound 261, 7-methoxy-5-[7-(1-methylpyrazol-4-yl)imidazo[l,2-a]pyridin-3-yl]-2-(2,2,2-trifluoroethyl)isoindolin-1-one] | 0.01 to 10 nM | 0.01 to 10 nM | 0.01 to 10 nM | 0.1 to 100 nM | 0.01 to 10 nM | 0.01 to 10 nM | 10 to 100 nM
COc1cc(-c2cnc3cc(-c4ccc(C)nn4)ccn23)cc(OC(F)F)c1C(=O)NC1CC1 [Cpd 273, N-cyclopropyl-2-(difluoromethoxy)-6-methoxy-4-[7-(6-methylpyridazin-3-yl)imidazo[1,2-a]pyridin-3-yl]benzamide] | 0.01 to 10 nM | 0.01 to 10 nM | 10 to 100 nM | 0.1 to 100 nM |  |  | 
